Assays:
P. aeruginosa strain M2 = test: Survival of neutropenic mice challenged intraperitoneally with bacteria; assay type: in vivo, Pseudomonas aeruginosa
Procedure: To measure the anti-bacterial effect of peptides, a similar strategy was employed. Female CD-1 mice were rendered neutropenic with 3 injections of cyclophosphamide as described previously. (Cryz, S. J., Inf. Immun., 39(2): 1067, 1983) An […] dose of Pseudomonas aeruginosa strain M2 (approximately 10^2 organisms per mouse) was injected intra peritoneally and in the single dose experiments, 100 μl of PBS or sterile water containing 200 μg (8.7 mg/kg) of a cationic peptide was injected immediately afterwards. […] Survival was recorded at 24 and 48 hours.

[1] = test system: LPS-induced TNF in RAW 264.7 cells; test: Preincubation of RAW cells with peptide, wash, and supernatant transfer before LPS; assay type: cell-based, murine; conditions: for depression of TNF induction by aspirated medium containing CEMA: fresh RAW cells
Procedure: In order to determine how rapidly CEMA reduced LPS-induced TNF production, E. coli 0111:B4 or Bort LPS was added at time 0 to RAW macrophages. CEMA or Polymyxin B was added at time 0, 30 and 60 minutes. Levels of TNF were measured after 6 hours. […] To confirm that CEMA was acting on LPS rather than directly upon macrophage cell lines, 20 μg of CEMA was added to RAW cells and incubated for 60 minutes prior to aspiration of the medium and washing the cells 3 times with HBSS (Hanks Buffered Salt Solution).
To ensure that the cationic peptides were interacting with the LPS rather than the cell lines, […], and after incubation at 37° C. in 5% CO2 for 60 minutes, the supernatant was removed and added to a second well of untreated RAW 264.7 cells. Fresh medium was added to the peptide-treated RAW cells and 100 ng/ml of LPS was then added to both the peptide-treated cells and those reconstituted with supernatant, and these wells assayed for TNF production after 6 hours incubation at 37° C. in 5% CO2.
Both CEME and CEMA were reproducibly able to inhibit the induction, by E. coli 0111:B4 LPS, of TNF secretion by RAW 264.7 cells (Table 10). […] Virtually the same results were obtained with E. coli Bort LPS and in preliminary experiments with P. aeruginosa strain H 103 LPS. […] In contrast the supernatants from these preincubations (which presumably contained the peptides) when added to fresh RAW 264.7 cells, were able to suppress the ability of these cells to induce TNF in response to LPS stimulation, producing only 4451 units per ml;.

LPS-induced endotoxemia = test: Protection from lethal LPS endotoxicity in galactosamine-sensitized mouse endotoxic shock model; assay type: in vivo, mice; conditions: for % Mortality / dead/total: LPS 10 ug
Procedure: The ability of CEME and CEMA to protect against LPS-induced endotoxemia was assessed in vivo. Mice (8-10 weeks old) were injected intraperitoneally with […] D-galactosamine (Dgal) to sensitize them to LPS according to the mode of Galanos (Galanos, et al., Proc. Natl. Acad. Sci., USA, 76:5939-5943, 1979), followed by 0, 50, 100, or 200 μg CEME or CEMA in 100 μl. Immediately afterwards LPS (10 or 20 μg) in 100 μl was injected.
Mice are naturally resistant to LPS. […] Endotoxic shock was induced by intraperitoneal injection of 10 or 20 μg of E. coli 0111:B4 LPS in phosphate-buffered saline (PBS), pH 7.2 into galactosamine-sensitized 8-10 week old female CD-1 mice (Galanos, C., supra; Freudenberg, M. A., Inf. Immun., 51:891, 1986). In experiments involving peptides, 50-200 μg in 100 μl sterile water injected at separate intraperitoneal sites immediately before or after LPS injection. In survival experiments, survival was monitored at 24 to 48 hours post injection. In experiments measuring TNF, blood was withdrawn by cardiac puncture at timed intervals up to 8 hours after the injections and allowed to clot prior to measurement of TNF in the serum.
In contrast when CEMA was injected at around the same time as LPS, but at separate site in the peritoneum, it protected mice in a dose dependant fashion (FIG. 17). Endotoxemia was induced with 10 μg of E. coli 0111:B4 LPS injected into the peritoneum. Subsequently 50, 100, or 200 μg (2.2, 4.4, and 8.7 mg/kg) of CEME or CEMA was injected into a separate site in the peritoneum. […] mice were assessed for each experimental point. Mortality was observed after 24 hrs.

RAW 264.7 cells = test: RAW cell viability by Trypan blue exclusion; assay type: cell-based, murine; conditions: up to 50 μg
[2] = MIC of common antibiotics in the presence of sub-MIC levels of cationic peptides; assay type: cell-based
Source text: The ability of the cationic peptides to work synergistically was examined by determining the MIC values for some commonly used antibiotics in the presence of sub-MIC levels of cationic peptides (Table 4). […] This may be due to the high membrane permeabilizing activity of CEMA (see below). However, the peptides did lower the MIC of polymyxin B, possibly due to the fact that they are all taken up by the same pathway and are therefore aiding each other's uptake. Of interest is the influence that melittin has on the MIC of polymyxin B, given the weak membrane permeabilizing activity of melittin.

[3] = single dose 200 μg (8.7 mg/kg) i.p.
[4] = two injections at 2 hours and 12 hour after P. aeruginosa

CC[C@H](C)[C@H](NC(=O)CNC(=O)[C@@H](NC(=O)[C@H](CCCCN)NC(=O)[C@H](CCCCN)NC(=O)[C@H](Cc1ccccc1)NC(=O)[C@H](CC(C)C)NC(=O)[C@H](CCCCN)NC(=O)[C@H](Cc1c[nH]c2ccccc12)NC(=O)[C@@H](N)CCCCN)[C@@H](C)CC)C(=O)NCC(=O)N[C@@H](C)C(=O)N[C@H](C(=O)N[C@@H](CC(C)C)C(=O)N[C@@H](CCCCN)C(=O)N[C@H](C(=O)N[C@@H](CC(C)C)C(=O)N[C@H](C(=O)N[C@H](C(=O)NCC(=O)N[C@@H](CC(C)C)C(=O)N1CCC[C@H]1C(=O)N[C@@H](C)C(=O)N[C@@H](CC(C)C)C(=O)N[C@@H](CCCCN)C(=O)N[C@@H](CC(C)C)C(=O)N[C@H](C(=O)N[C@@H](CCCCN)C(=O)O)[C@@H](C)O)[C@@H](C)O)[C@@H](C)O)C(C)C)C(C)C [CEMA]
Survival (%) (P. aeruginosa strain M2; [3]): 43.3% | Survival (survivors/total) (P. aeruginosa strain M2; [3]): 13/30 | Survival (%) (P. aeruginosa strain M2; [4]): 55.0% | Survival (survivors/total) (P. aeruginosa strain M2; [4]): 11/20 | TNF induction in washed RAW cells ([1]; 20 μg CEMA preincubated 60 minutes, washed 3 times, then 10 ng or 100 ng of LPS): 14,000-20,000 Units of TNF per ml | TNF induction in peptide-preincubated RAW 264.7 cells ([1]; CEMA 20 μg/ml preincubated 60 minutes, supernatant removed, fresh medium and 100 ng/ml E. coli 0111:B4 LPS): 19062 Units per ml | depression of TNF induction by aspirated medium containing CEMA ([1]; 10 ng E. coli Bort LPS): 98.5% | depression of TNF induction by aspirated medium containing CEMA ([1]; 100 ng E. coli Bort LPS): 75% | TNF induction in fresh RAW 264.7 cells given preincubation supernatants ([1]; supernatants from CEMA 20 μg/ml preincubations, LPS stimulation): 4451 units per ml | survival (LPS-induced endotoxemia; 10 μg E. coli 0111:B4 LPS, peptide 50 μg): 60% | survival (LPS-induced endotoxemia; 10 μg E. coli 0111:B4 LPS, peptide 100 μg): 75% | survival / mice protected (LPS-induced endotoxemia; 10 μg E. coli 0111:B4 LPS, peptide 200 μg (8.7 mg/kg)): 78% | % Mortality (LPS-induced endotoxemia; peptide 50 ug): 40% | dead/total (LPS-induced endotoxemia; peptide 50 ug): 2/5 | % Mortality (LPS-induced endotoxemia; peptide 100 ug): 25% | dead/total (LPS-induced endotoxemia; peptide 100 ug): 2/8 | % Mortality (LPS-induced endotoxemia; peptide 200 ug): 22% | dead/total (LPS-induced endotoxemia; peptide 200 ug): 2/9 | RAW cell viability (RAW 264.7 cells): no apparent decrease

polymyxin B
MIC in the presence of ([2]; CEMA 0.7 μg/ml): 0.5 μg/m1 | MIC in the presence of ([2]; CEMA 1.4 μg/ml): 0.12 μg/m1 | MIC in the presence of ([2]; CEME 0.6 μg/ml): 0.5 μg/m1 | MIC in the presence of ([2]; CEME 1.2 μg/ml): 0.25 μg/m1 | MIC in the presence of ([2]; Melittin 2 μg/ml): 0.5 μg/m1 | MIC in the presence of ([2]; Melittin 4 μg/ml): 0.06 μg/m1 | MIC in the presence of ([2]; No peptide): 1 μg/m1

Reference: patent US5688767A, “Treatment of endotoxin-associated disorders with cationic peptides” (priority 1996, dated 1997)
